Data set [1] concerns Deroceras reticulatum slugs. The data set can be described thus: Petri dish choice test (control and test sector) with test solutions made from commercial organic acids. The format is in vivo. The conditions noted are these: 24 hour period, n=10 replicates, laboratory. The protocol:
Next, using the results obtained from Mass spectrometry to make up the test solutions with these organic acids, the behaviour of the slugs in the presence of beetle odours was now investigated. Initially this test was carried out inside the laboratory in the manner previously shown for pygidial secretions using a control and test sector to show the slug's choice overnight within a petri dish. […] However the results of all these tests still remains to be analysed and will appear in the PhD thesis only after using a computer software for image analysis.

Data set [2] concerns Deroceras reticulatum slugs. Nature of the data set: Glasshouse study of slug feeding damage on growing pea plants. The format is in vivo. The conditions noted are these: 2nd day of test. The text has this:
A suitable experimental design had to be substituted for this glasshouse study, based on the principles to show avoidance behaviour. This was also remarkably achieved on a five point scale to record slug behaviour, under a simple experimental procedure which lasted for only five days, to conclude this semi-field trial just by using the existing facilities alone at […] Housewares Ltd who manufactured their items for supermarket sale, provided plastic bowls in different colours to suit a random style experiment to show this current field study inside the glasshouse. Whifford Plastics Ltd produced fluon, a test chemical which had been used before to stop slugs from escaping the planned experiment in Cardiff University, was sold in litres sufficient to cover the sides of these plastic bowls by using only a simple paint brush. F. A Smith a soil merchant supplying for Cardiff University Horticultural services at Talybont, produced John Innes Potting compost No 2 commonly used in a nursery for growing peas, ideally because the sterilised soil with peat and grit added has a base fertiliser for quick germination. […] To keep the peas nice and damp and the slugs happy, the multipurpose peat based compost from the local B&Q store was adequate to support the trays of peas inside the plastic bowls which was 2⁄3 filled with this moist peat and the tray positioned so that the rim is flush with the surface of the peat. All the slugs used in this experiment were collected from the fields around Talybont, where they were actively seen to be searching for food lurking under the plants during the early hours of the morning at sunrise and pre-starved for a further 24 hours at 15° C., 80% RH, 12 hour light: dark regime, prior to testing inside the glasshouse. These were also the same species of slugs causing contamination during the routine operation in […] has a latin name Deroceras reticulatum, already well known for its physical damage to other crops under use in the UK. […]

The conditions of data set [3]: cited from earlier work.

Structures are written as SMILES. Where two headings read alike, the source gives them in different places.

`O=CO` [Formic Acid]: the “Avoidance of treated area (proportion of total area of petri dish covered by slug trails)” value in data set [1] is recorded as “scare slugs stiff”.

`CC(=O)O` [Acetic Acid]: the “Feeding damage by slugs on growing pea plants” value (shortened to “Feeding damage by slugs”) in data set [2] is “Concern”.

As to `C=C(C)C(=O)O` [Methacrylic Acid], the “Feeding damage by slugs” value in data set [2] is “damage was effectively reduced”. The Solubility in water in data set [3] (20° C.) is reported as 9.7 g/100 ml (20° C.).

As to `C/C=C(\C)C(=O)O` [Tiglic Acid], the “Feeding damage by slugs” value in data set [2] is listed as “Concern”. In addition, the Solubility in water entry is listed as “sparingly” in data set [3] (cold water) and “soluble” in data set [3] (hot water).

Source of the values: patent publication US20070134281A1, “Investigate the potential of using beetle odours to deter slugs in vining peas” (priority 2004, published 2007).
